Laboratory results reported in patent US12497399B2, “Fluorinated integrin antagonists” (OcuTerra Therapeutics, Inc., priority 2013, dated 2025).

Assays:
αv integrin [1] = molecular target: T1, αv integrin (Homo sapiens, UniProt P06756); experiment: Cell adhesion assay: HMVEC adhesion to vitronectin coated plates; assay type: cell-based; details: human dermal microvascular endothelial cells, 1.5 h at 37° C., read-out: IC50 to block adhesion of HMVEC to vitronectin
T1 construct: three primary cell cultures; host or cells: HMVEC primary human dermal microvascular endothelial cells, passages 9-14
Procedure: (§1) The ability of compounds to block adhesion of three primary cell cultures: human dermal microvascular endothelial (HMVEC), rat lung microvascular endothelial (RLMVEC), and rabbit aortic endothelial (RAEC) cells, to vitronectin coated plates was determined using the following procedure.
(§2) Adhesion plates preparation. 96-well plates were coated with vitronectin in PBS, pH 7.4 by incubating 50 μL of the solution (10 μg/ml) for 1.5 h at room temperature or overnight at 4° C. The plates then were blocked with 1% BSA in PBS (30 min at room temperature) and washed with PBS.
(§3) Cell culturing and loading. HMVEC cells (passages (p)9-14) (from Lonza, Allendale, NJ) RLMVEC cells (p4-14) (from Vec Technology, Rensselaer, NY) and RAEC cells (p4-14) (from CellBiologics, Chicago, IL) were used for the compound testing. Cells were grown in T175 tissue culture flasks and dislodged by gentle 3 min treatment with Accutase (Life Technologies). After washing, the cells in suspension in RPMI-1640 (Life Technologies) were loaded with calcein-AM (5 μM) (Life Technologies) for 30 min at 37° C. and re-suspended into RPMI w/o phenol red medium containing 10% FBS.
(§4) Adhesion assay. The cell suspension was aliquoted into the wells at a density of 1.0×10^5 cells/well (RLMVEC) and 5.0×10^4 (HMVEC, and RAEC). The test compounds are added at the same time with the cells. The plates are incubated for 1.5 h at 37° C. […] The wash was performed by 2 cycles of aspiration of the supernatant and addition of 100 μL of the pre-warmed fresh DPBS (Life Technologies). A fluorescence of the remaining cells is measured using multimode plate reader (Victor 2V, PerkinElmer) at an excitation/emission wavelengths of 485/535 nm. The compounds were tested starting with maximal concentration of 1 μM with half-log dilution schedule. IC50 values were calculated with Prism 5 (GraphPad, CA) by fixing the bottom of the curves to a value of blank for empty wells fluorescence.

αv integrin [2] = experiment: Cell adhesion assay: RLMVEC adhesion to vitronectin coated plates; assay type: cell-based; details: rat lung microvascular endothelial cells, 1.5 h at 37° C., read-out: IC50 to block adhesion of RLMVEC to vitronectin
Procedure: as §1, §2, §3, §4

αv integrin [3] = experiment: Cell adhesion assay: RAEC adhesion to vitronectin coated plates; assay type: cell-based; details: rabbit aortic endothelial cells, 1.5 h at 37° C., read-out: IC50 to block adhesion of RAEC to vitronectin
Procedure: as §1, §2, §3, §4

[4] = test system: chick chorioallantoic membrane (CAM); experiment: Chick chorioallantoic membrane (CAM) anti-angiogenic assay; assay type: in vivo; details: gelatin sponge graft with test compound and 50 ng VEGF; FIG. 1
Procedure: CAM surfaces were grafted with gelatin sponges impregnated with the concentrations of test compounds and 50 ng VEGF dissolved in PBS. Untreated CAM received only VEGF and PBS. Error bars represent SEM, N=5, P values for the treated groups were calculated by comparing with the untreated group (*p<0.05, **p<0.01, ***p<0.001). Test Substance Preparation: Test samples and standards were dissolved in PBS and sterilized by passing through a syringe filter (0.22 μm). hVEGF(SIGMA) 50 ng/μl was prepared in sterile PBS. Grafting: Gelatin sponge (Abogel) was cut in approximately 2 mm^3 pieces and loaded with required test substance or PBS and VEGF. The graft was placed on the CAM. Eggs: Fertile hen eggs were procured from a hatchery and were cleaned and decontaminated using alcohol. 1 ml of albumin was removed using a syringe and incubated for 8 days. Grafts were placed on developing CAMs and further incubated to day 12. On day 12, CAMs were fixed with 4% formaldehyde in PBS, dissected and imaged. Imaging: Fixed CAMs were imaged under constant illumination and magnification under a stereomicroscope fitted with a digital camera (CANON). Image analysis: Images were analyzed on MS PowerPoint keeping the image size constant. A ring was drawn around the graft and the size was kept constant. Blood vessels crossing the ring were counted for each test group.

[5] = Distribution in plasma, aqueous humor, vitreous humor and retina after topical ocular administration; assay type: in vivo, Dutch Belted rabbits; details: 50 μL/eye, 1.0-2.5 mg/mL, 0.5 or 1.0 and 8 hours, FIGS. 2, 3, 4
Procedure: The plasma concentrations and ocular distribution (aqueous humor, vitreous humor, and retina) of Compounds A1, A2, and A3 were determined following topical ocular administration in Dutch Belted rabbits. […] Aqueous humor, vitreous humor, and retina were collected from each eye at each time point post-dose. Also, weights were recorded. Plasma and ocular sample concentrations of the compounds were determined by LC-MS/MS.
Animal Dosing: The exposure of compounds A1, A2, and A3 was evaluated in Dutch Belted rabbits. The study was not blinded. Each compound was dosed as n=3/time point for a total of nine rabbits. Rabbits were housed one per cage. Animals were not fasted, and food and water were supplied ad libitum.
Animals were anesthetized following the 13IA5 IACUC protocol for the dosing. Each rabbit received a bolus dose of test formulation via topical ocular administration into both eyes at time zero on the day of dosing. Plasma and ocular samples were collected at pre-determined time points. Animals for the 30-minute and 1-hour time points were anesthetized for the entire duration of the study. The animals for the 8-hour time point were recovered after dosing and then euthanized for sampling purposes.
At each time point, approximately 0.5 mL of blood was collected and placed into chilled Na-heparin tubes containing citric acid. Blood samples were centrifuged at a speed of 3,000 g for 5 minutes to obtain plasma as quickly as possible. Samples were stored frozen at −80° C. until analysis. Animals were euthanized per the 13IA5 IACUC protocol and both eyes were enucleated immediately. Following enucleation, each eye was rinsed with PBS. Ocular samples from both eyes of each animal were collected and weights were recorded. All the samples were frozen immediately on dry ice, and stored at −60 to −80° C. for analysis.
Analysis of Plasma and Ocular Samples: An LC-MS/MS method was developed for the determination of Compounds A1, A2, and A3 in rabbit plasma and ocular samples.

[6] = test system: laser-induced choroidal neovascularization; experiment: Laser-induced choroidal neovascularization (CNV) model; assay type: in vivo, Dutch Belted rabbits; details: twice daily topical administration, 50 μL; fluorescein angiography day 35; FIG. 5
Procedure: Healthy male animals weighing between 1.5 and 2.0 kg were used in these studies. Animals were weighed prior to dosing and at euthanasia, and more often if needed. Baseline fundus photography and fluorescein angiography was performed on each animal prior to CNV induction.
Animals were anesthetized with an intramuscular injection of ketamine hydrochloride (20 mg/kg) and xylazine (2 mg/kg) for CNV induction, fundus photography, fluorescein angiography, and intravitreal (IVT) injections. Rabbits were maintained on isoflurane (approximatelyl to 3%) in oxygen (approximately 1 to 2 L/min) as necessary. One drop of topical proparacaine hydrochloride anesthetic (0.5%) was placed in each eye before procedures. Additional topical ocular anesthesia was utilized during the procedure if needed.
CNV was induced by laser photocoagulation treatment. […]
Clinical ophthalmic exams (slit-lamp biomicroscopy and indirect ophthalmoscopy), fundus photography, and fluorescein angiography were performed at baseline and then weekly for up to 6 weeks post-induction. Exams were scored using the McDonald-Shadduck Score System. […]
At the conclusion of the study, animals were euthanized per the 13C232Q3 IACUC protocol and both eyes enucleated immediately. […] Ocular samples (aqueous humor, vitreous humor retina and choroid) from both eyes of each animal were collected and weights were recorded. […]

T1 sequence (P06756 31-1048): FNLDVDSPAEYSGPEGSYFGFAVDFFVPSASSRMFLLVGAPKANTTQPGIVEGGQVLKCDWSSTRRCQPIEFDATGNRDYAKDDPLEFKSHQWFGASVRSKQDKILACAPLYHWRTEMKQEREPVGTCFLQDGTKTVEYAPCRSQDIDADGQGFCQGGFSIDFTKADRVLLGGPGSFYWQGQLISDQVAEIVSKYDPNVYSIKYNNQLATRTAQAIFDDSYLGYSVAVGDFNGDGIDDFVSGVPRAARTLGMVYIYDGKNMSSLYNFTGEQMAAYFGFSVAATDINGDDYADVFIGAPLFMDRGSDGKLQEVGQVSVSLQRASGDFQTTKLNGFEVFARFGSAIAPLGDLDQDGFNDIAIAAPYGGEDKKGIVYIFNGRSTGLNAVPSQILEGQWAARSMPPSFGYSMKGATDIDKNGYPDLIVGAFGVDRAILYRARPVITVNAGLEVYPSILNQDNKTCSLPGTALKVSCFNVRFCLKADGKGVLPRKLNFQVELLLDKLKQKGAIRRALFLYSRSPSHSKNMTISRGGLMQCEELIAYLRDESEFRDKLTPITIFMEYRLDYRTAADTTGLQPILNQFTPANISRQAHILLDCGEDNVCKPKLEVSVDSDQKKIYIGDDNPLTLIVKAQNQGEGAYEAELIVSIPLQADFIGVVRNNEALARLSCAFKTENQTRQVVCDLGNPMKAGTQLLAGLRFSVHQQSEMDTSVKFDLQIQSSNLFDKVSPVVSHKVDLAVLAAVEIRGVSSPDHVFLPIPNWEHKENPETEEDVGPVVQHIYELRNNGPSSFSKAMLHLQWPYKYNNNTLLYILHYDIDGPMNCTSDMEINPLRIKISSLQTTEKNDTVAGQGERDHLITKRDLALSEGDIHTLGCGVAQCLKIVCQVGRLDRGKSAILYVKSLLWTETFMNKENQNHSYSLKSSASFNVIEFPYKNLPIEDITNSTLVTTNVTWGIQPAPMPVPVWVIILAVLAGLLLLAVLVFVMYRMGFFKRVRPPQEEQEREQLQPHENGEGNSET

SMILES	IC50 (αv integrin [1]) [µM]	IC50 (αv integrin [2]) [µM]	IC50 (αv integrin [3]) [µM]	anti-angiogenic activity: number of blood vessels vs untreated control [4]	distribution to the retina [5]	reduction of laser-induced choroidal neovascularization vs vehicle control [6]
O=C(O)CC(CCCCCCc1ccc2c(n1)NCCC2)c1cnc2cc(F)c(F)cc2c1 (stereo not shown) [Compound A6, 3-(6,7-difluoroquinolin-3-yl)-9-(5,6,7,8-tetrahydro-1,8-naphthyridin-2-yl)nonanoic Acid]	0.044	0.0055	0.044			
O=C(O)CC(CCCCCCc1ccc2c(n1)NCCC2)c1cnc2ccc(F)cc2c1 (stereo not shown) [Compound A4, 3-(6-fluoroquinolin-3-yl)-9-(5,6,7,8-tetrahydro-1,8-naphthyridin-2-yl)nonanoic Acid]	0.042	0.032	0.0085			
O=C(O)CC(CCCCCCc1ccc2c(n1)NCCC2)c1cnc2cc(F)ccc2c1 (stereo not shown) [Compound A5, 3-(7-fluoroquinolin-3-yl)-9-(5,6,7,8-tetrahydro-1,8-naphthyridin-2-yl)nonanoic Acid]	0.25	0.037	0.02			
O=C(O)C[C@@H](c1ccc(OC(F)F)nc1)N1CCN(CCCc2ccc3c(n2)NCCC3)C1=O [Compound A1, (S)-3-(6-(difluoromethoxy)pyridin-3-yl)-3-(2-oxo-3-(3-(5,6,7,8-tetrahydro-1,8-naphthyridin-2-yl)propyl)imidazolidin-1-yl)propanoic acid]	0.0094	0.031	0.0084	significantly decreases the number of blood vessels	efficiently distributed to the retina	effectively reduced laser-induced choroidal neovascularization
O=C(O)CC(CCCCCCc1ccc2c(n1)NCCC2)c1cnc2cc(C(F)(F)F)ccc2c1 (stereo not shown) [Compound A7, 9-(5,6,7,8-tetrahydro-1,8-naphthyridin-2-yl)-3-(7-(trifluoromethyl)quinolin-3-yl)nonanoic Acid]	0.13	0.4	0.21			
O=C(O)CC(CCCCCCc1ccc2c(n1)NCCC2)c1cnc(C(F)(F)F)nc1 (stereo not shown) [Compound A2, 9-(5,6,7,8-tetrahydro-1,8-naphthyridin-2-yl)-3-(2-(trifluoromethyl)pyrimidin-5-yl)nonanoic Acid]	0.16	0.068	0.016	significantly decreases the number of blood vessels	efficiently distributed to the retina	effectively reduced laser-induced choroidal neovascularization
O=C(O)CC(CCCCCCc1ccc2c(n1)NCCC2)c1ccc(OC(F)F)nc1 (stereo not shown) [Compound A3, 3-(6-(difluoromethoxy)pyridin-3-yl)-9-(5,6,7,8-tetrahydro-1,8-naphthyridin-2-yl)nonanoic Acid]	0.62	0.23	0.059		efficiently distributed to the retina	
